# Experimental data as given in BindingDB's records for doi:10.1074/jbc.M112.356576 (University of Adelaide, 2012).
# Target: T1, Bifunctional ligase/repressor BirA (Staphylococcus aureus, UniProt A0A3A5LBF0)
# T1 sequence (A0A3A5LBF0 whole entry): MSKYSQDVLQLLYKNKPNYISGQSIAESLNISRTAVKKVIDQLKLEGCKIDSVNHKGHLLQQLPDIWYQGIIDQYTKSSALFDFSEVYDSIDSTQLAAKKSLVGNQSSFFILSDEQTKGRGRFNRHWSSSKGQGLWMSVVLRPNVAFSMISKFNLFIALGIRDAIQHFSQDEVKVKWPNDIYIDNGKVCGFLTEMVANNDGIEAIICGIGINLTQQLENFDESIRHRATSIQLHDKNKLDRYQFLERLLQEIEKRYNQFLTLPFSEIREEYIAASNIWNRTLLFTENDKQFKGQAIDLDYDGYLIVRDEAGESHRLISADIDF
# Assay: Enzyme Inhibition Assay
# Source text: In vitro enzyme inhibition using biotin protein ligase.
row,SMILES,Ki
1,"Nc1ncnc2c1NCN2[C@@H]1O[C@H](Cn2cc(CCCCC[C@@H]3SCC4NC(=O)NC43)nn2)[C@@H](O)[C@H]1O (stereo partly drawn) [Biotin triazole, 5]",1.17 µM
2,"O=C1NC2CS[C@@H](CCCCCc3cn(CCCCOc4ccccc4)nn3)C2N1 (stereo partly drawn) [Biotin triazole, 11]",> 10 µM
3,"O=C1NC2CS[C@@H](CCCCCc3cn(CCCCOc4ccc5ccccc5c4)nn3)C2N1 (stereo partly drawn) [Biotin triazole, 13]",1.17 µM
4,"Cc1ccc2oc(=O)n(CCCCn3cc(CCCCC[C@@H]4SCC5NC(=O)NC54)nn3)c2c1 (stereo partly drawn) [Biotin triazole, 14]",0.09 µM
5,"Cc1ccc2oc(=O)n(CCCn3cc(COCCC[C@@H]4SCC5NC(=O)NC54)nn3)c2c1 (stereo partly drawn) [Biotin triazole, 16]",> 10 µM

# Second part, the compound after the results:
row,Ki,SMILES
1,> 10 µM,"CC(C)(C)C(=O)OCCn1cc(CCCCC[C@@H]2SCC3NC(=O)NC32)nn1 (stereo partly drawn) [Biotin triazole, 10]"
2,> 10 µM,"O=C1NC2CS[C@@H](CCCCCc3cn(CCCCOc4cccc5ccccc45)nn3)C2N1 (stereo partly drawn) [Biotin triazole, 12]"
3,> 10 µM,"O=C1NC2CS[C@@H](CCCCCc3cn(CCCOc4ccc5ccccc5c4)nn3)C2N1 (stereo partly drawn) [Biotin triazole, 15]"
